The values below come from patent US6054115A, “Hydroxymethyl phosphine compounds for use as diagnostic and therapeutic pharmaceuticals and method of making same” (priority 1998, dated 2000).

Data set [1] in a line: Oxidative stability of HMPE and HMPB in air and aqueous solution. It is filed as physicochemical. Particulars: air and aqueous solutions.
The nature of data set [2]: In vitro stability of Re complexes to cysteine challenge, 31P NMR. Particulars: for ligand exchange or complex decomposition: 1 M cysteine, 25° C, ~0.01 M complex. The format is physicochemical. The protocol:
Appropriate sample sizes of complexes 8, 9, and 10 were dissolved in 10 mL of deionized water to afford solution concentrations of ~0.01 M. To these solutions was added 15 mL of a 1.0 M cysteine solution also in water. The solutions were allowed to stir at room temperature overnight. The reaction progress for potential ligand displacement was monitored by ^31 P NMR spectroscopy at various timepoints over a twenty-four hour study period.
In order to determine the in vitro stability of the rhenium S2 P2 complexes 8, 9, and 10, the solutions of each were allowed to incubate at 25° C. in an aqueous solution of cysteine.

Consider `OCP(CO)CCP(CO)CO` [HMPE, (HOH2 C)2 PCH2 CH2 P(CH2 OH)2], for which the oxidative stability entry in data set [1] was “oxidatively stable in air and also in aqueous solutions”.

For “[ReO2 (HOH2 C)2 P(CH2)2 S(CH2)3 S(CH2)2 P(CH2 OH)2 ]2 Cl2 [Compound 8]”, the “ligand exchange or complex decomposition” value in data set [2] is “no observable ligand exchange or complex decomposition”.

For the molecule `OCP(CO)c1ccccc1P(CO)CO` [HMPB, (HOH2 C)2 PC6 H4 P(CH2 OH)2], the oxidative stability result in data set [1] was “oxidatively stable in air and also in aqueous solutions”.

In the case of “[ReO2 (HOH2 C)2 P(CH2)3 S(CH2)3 S(CH2)3 P(CH2 OH)2 ]Cl [Compound 10]”, the “ligand exchange or complex decomposition” value in data set [2] is reported as “no observable ligand exchange or complex decomposition”. Further, the “stability profile (kinetic inertness)” value in data set [2] (1.0 M cysteine, 24 hours) was “unusual kinetic inertness”.

As to “[ReO2 (HOH2 C)2 P(CH2)2 S(CH2)4 S(CH2)2 P(CH2 OH2 ]2 (ReO4^-)2 [Compound 9]”, the “ligand exchange or complex decomposition” value in data set [2] is given as “no observable ligand exchange or complex decomposition”.
